Converted amounts (≈) assume the structure as drawn. Like-named read-outs stand apart in the source and are kept apart here. Marks after values point to notes of the source that are not given here.
What was measured:
[1] = biological target: T1, TcMetRS (Trypanosoma cruzi, UniProt Q4D6H2); experiment: TcMetRS BIOMOL Green biochemical assay, 10-point dose response; details: for TcMetRS Maximum % Inhibition Plateau: Table 3, plateau of dose-response curve; for Emax: read-out: TcMetRS Maximum % Inhibition
[2] = CHI LogD measurement; type: physicochemical
Description: CHI LogD measurements were performed as described elsewhere.[29] cLogP measurements were calculated using StarDrop (Optibrium).

[3] = biological target: T2, LdMetRS (Leishmania donovani, UniProt A0A3Q8IBX2); experiment: LdMetRS BIOMOL Green biochemical assay, 10-point dose response
[4] = Aqueous solubility, filtration-based method; type: physicochemical; details: phosphate-buffered saline pH 7.4, 24 h, 25 °C; for solubility at 24 h: aqueous buffer, kinetic from dmso stock
Description: Solubility was assessed using a filtration-based method. Test compounds were dissolved in DMSO to give 10 mM solutions. Five microliters of the 10 mM solution was added to 195 μL of phosphate-buffered saline at pH 7.4 and mixed for 24 h (rotary mixing, 900 rpm, 25 °C) excluding light. After mixing, the samples were filtered to remove any undissolved material using a Millipore Multiscreen HTS filter. The filtrate was analyzed for dissolved drug compounds using UHPLC.

[5] = biological target: T2, LdMetRS; experiment: LdMetRS mode of inhibition studies; type: biochemical; details: for Ki / h (inhibitor Hill slope) / β (fraction of activity remaining) / Vmax / n (substrate Hill slope) / Ks: LdMetRS; for Ki: fit to eq 7, ± SE of fit; for Vmax: global fit parameter; for n (substrate Hill slope) / Ks: global fit; for Ks: substrate dissociation constant
From the text: Subsequent full mode of inhibition studies with compounds from the MetRS02 series were more challenging due to the partial inhibition profiles of some compounds resulting in poor global fits to the standard competitive, uncompetitive, and noncompetitive inhibition models (eqs 3, 4, and 5, respectively). In addition, during the enzymatic characterization of methionine binding to LdMetRS, a Hill slope of <1 was obtained (and was hypothesized to be due to conformational selection).[6] This low Hill slope is also not factored into the standard inhibition models described (eqs 3–5). New models with additional parameters to account for the partial inhibition and low methionine Hill slope were therefore required (eqs 6 and 7). Using these modified equations, the mode of inhibition of compound 27 was carried out by testing LdMetRS enzyme activity under varying substrate concentrations at various inhibitor concentrations (Figure 5). The cooperative, noncompetitive, partial inhibition model (eq 7) was confirmed as the best fit (using F-test analyses), with a noncompetitive mode of inhibition consistent with binding in an allosteric binding pocket. The returned fit parameters are shown in Table 4 and are presented with the standard error (SE) of the fit to eq 7.
(§1) Using GraFit v6.0 (Erithacus Software), each data set was globally fitted to standard competitive, uncompetitive, and noncompetitive inhibition models (eqs 3–5).
(§2) Equation 5 (noncompetitive inhibition model): [drawing 5] 5 On the basis of poor data fits to the above models, partial inhibition and cooperativity parameters were introduced into the uncompetitive and noncompetitive models as previously described by Skovpen et al.[30],[31] Mode of inhibition data were globally fitted to these modified equations (eqs 6 and 7).
(§3) Equation 7 (cooperative, noncompetitive, partial inhibition model): [drawing 7] 7 v is the velocity, Vmax is the maximum velocity, [S] is the substrate concentration, [I] is the inhibitor concentration, Ki is the inhibitor constant, Ks is the substrate dissociation constant, n is the substrate Hill slope, h is the inhibitor Hill slope, and β is the proportionality constant (fraction of activity remaining when the enzyme is fully saturated with inhibitor).
(§4) If more than one model appeared possible, then data were fitted to both and examined for significance using the F-test function in GraFit.

[6] = biological target: T1, TcMetRS; experiment: TcMetRS mode of inhibition studies; type: biochemical; details: TcMetRS, fit to eq 7, ± SE of fit
From the text: It was therefore feasible to perform TcMetRS mode inhibition studies with this compound. These studies, carried out as previously described for LdMetRS, confirm a best fit to the same partial, cooperative, noncompetitive inhibition model (eq 7; Supporting Information Figure 6 and Table 4).
as §1, §2, §3, §4

[7] = 50 μM methionine, 100 μM ATP, 80 nM TcMetRS, read-out: TcMetRS pIC50 (converted)
[8] = chromatographic hydrophobicity index
[9] = 50 μM methionine, 100 μM ATP, 50 nM LdMetRS, pIC50 = −log IC50 (M), read-out: LdMetRS pIC50 (converted)
[10] = plateau of dose-response curve, 50 μM methionine, 100 μM ATP, read-out: LdMetRS Maximum % Inhibition Plateau
[11] = chromatography (chromatographic hydrophobicity index)
[12] = Table 2, 50 μM methionine, 100 μM ATP, read-out: LdMetRS Maximum % Inhibition

T1 sequence (Q4D6H2 entry or part of it): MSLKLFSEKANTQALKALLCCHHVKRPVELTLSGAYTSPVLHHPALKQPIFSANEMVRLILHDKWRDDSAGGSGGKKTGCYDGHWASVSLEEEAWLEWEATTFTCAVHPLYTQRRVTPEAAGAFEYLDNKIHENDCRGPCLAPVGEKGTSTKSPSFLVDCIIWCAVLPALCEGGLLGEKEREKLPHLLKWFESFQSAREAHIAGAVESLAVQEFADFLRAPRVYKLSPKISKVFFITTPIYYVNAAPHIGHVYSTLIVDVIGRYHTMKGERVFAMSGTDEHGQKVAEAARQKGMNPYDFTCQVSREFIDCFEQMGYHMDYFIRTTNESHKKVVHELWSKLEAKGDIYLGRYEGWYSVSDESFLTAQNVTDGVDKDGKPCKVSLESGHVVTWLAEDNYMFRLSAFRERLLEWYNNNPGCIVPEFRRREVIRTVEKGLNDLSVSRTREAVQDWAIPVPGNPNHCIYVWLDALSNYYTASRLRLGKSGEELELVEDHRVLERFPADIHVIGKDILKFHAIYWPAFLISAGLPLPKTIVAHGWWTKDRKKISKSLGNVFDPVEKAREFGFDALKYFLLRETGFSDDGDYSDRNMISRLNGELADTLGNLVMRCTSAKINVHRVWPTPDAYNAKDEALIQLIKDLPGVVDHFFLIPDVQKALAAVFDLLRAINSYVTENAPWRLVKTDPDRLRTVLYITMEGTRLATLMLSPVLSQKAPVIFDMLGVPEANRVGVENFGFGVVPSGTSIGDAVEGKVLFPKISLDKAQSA
T2 sequence (A0A3Q8IBX2 entry or part of it): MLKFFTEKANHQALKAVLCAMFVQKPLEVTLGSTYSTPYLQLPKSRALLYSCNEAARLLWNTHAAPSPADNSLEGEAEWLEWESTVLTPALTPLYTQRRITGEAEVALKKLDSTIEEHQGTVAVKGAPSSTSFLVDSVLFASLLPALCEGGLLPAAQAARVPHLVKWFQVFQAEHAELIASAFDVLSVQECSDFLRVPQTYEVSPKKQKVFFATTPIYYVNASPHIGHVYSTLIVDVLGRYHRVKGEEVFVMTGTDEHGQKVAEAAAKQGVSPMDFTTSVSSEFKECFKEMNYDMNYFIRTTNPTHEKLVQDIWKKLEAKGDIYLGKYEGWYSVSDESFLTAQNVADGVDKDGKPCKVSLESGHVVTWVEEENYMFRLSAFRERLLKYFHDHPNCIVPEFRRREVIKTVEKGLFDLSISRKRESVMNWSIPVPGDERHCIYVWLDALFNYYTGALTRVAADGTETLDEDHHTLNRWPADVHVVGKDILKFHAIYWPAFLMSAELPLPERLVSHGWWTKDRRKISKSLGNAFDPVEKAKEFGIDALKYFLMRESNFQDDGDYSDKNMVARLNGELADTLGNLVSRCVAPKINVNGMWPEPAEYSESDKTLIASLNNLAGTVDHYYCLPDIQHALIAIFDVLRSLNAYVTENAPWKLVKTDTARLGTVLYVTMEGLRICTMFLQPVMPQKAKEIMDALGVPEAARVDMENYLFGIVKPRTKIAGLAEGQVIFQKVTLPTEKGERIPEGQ

Structure (SMILES) | IC50 [1, 7] | chromatographic logD [2, 8] | IC50 [3, 9] | Emax [3, 10] | solubility at 24 h [4] | other results
Cn1ncc2c(NCCO)nc(Nc3ccc(Cl)cc3)nc21 [Compound 1] |  |  | 7.94e-06 M | 89.5% |  | 
Cn1ncc2c(NCCO)nc(Nc3cccc(F)c3)nc21 [Compound 4] |  |  | 3.16e-05 M | 83.7% |  | chromatographic logD [2, 11]: 1.48
Cn1ncc2c(Nc3ccc(F)c(F)c3)nc(Nc3ccc(F)c(F)c3)nc21 [Compound 17] | > 100 µM | 3.82 | > 0.0001 M |  | 0.38 µM (≈ 0.148 µg/mL) | 
CN(c1cccc(F)c1)c1nc(NCCO)c2cnn(C)c2n1 [Compound 12] | > 100 µM | 1.51 | > 0.0001 M |  |  | Emax ([1]; 50 μM methionine, 100 μM ATP): 11.7%; Emax [3, 12]: 10.2%
Cn1ncc2c(NCCO)nc(NC3CCCCC3)nc21 [Compound 8] | > 100 µM | 1.74 | > 0.0001 M |  |  | Emax ([1]; 50 μM methionine, 100 μM ATP): 16.3%; Emax [3, 12]: 11.1%
Cn1ncc2c(NCCO)nc(Nc3ccc(F)cc3)nc21 [Compound 2] |  |  | 2.51e-05 M | 94.2% |  | chromatographic logD [2, 11]: 1.32
Cn1ncc2c(NCCO)nc(N3CCCCC3)nc21 [Compound 10] | > 100 µM | 1.49 | > 0.0001 M |  |  | Emax ([1]; 50 μM methionine, 100 μM ATP): 13.6%; Emax [3, 12]: 10.8%
CC(C)Cc1cc(Nc2nc(NCCO)c3cnn(C)c3n2)ccc1F [Compound 16] | > 100 µM |  | > 0.0001 M |  |  | Emax ([1]; 50 μM methionine, 100 μM ATP): 15.4%; Emax [3, 12]: 17.1%
Cn1ncc2c(NCCO)nc(NC3CCOCC3)nc21 [Compound 9] | > 100 µM | 0.04 | > 0.0001 M |  |  | Emax ([1]; 50 μM methionine, 100 μM ATP): 15%; Emax [3, 12]: 17.3%
CN(CCO)c1nc(Nc2ccc(F)c(F)c2)nc2c1cnn2C [Compound 20] | > 100 µM | 1.99 | 2.51e-06 M | 69.9% | 2.4 µM (≈ 0.802 µg/mL) | 
Cn1ncc2c(NCCO)nc(Nc3cccc(Cl)c3)nc21 [Compound 3] |  |  | 1.26e-05 M | 94.7% |  | chromatographic logD [2, 11]: 1.82
CN(C)c1nc(Nc2ccc(F)c(F)c2)nc2c1cnn2C [Compound 19] |  | 2.88 |  |  | 4.8 µM (≈ 1.46 µg/mL) | IC50 [1]: > 100 µM; IC50 ([3]; LdMetRS pIC50, 50 μM methionine, 100 μM ATP, 50 nM LdMetRS, pIC50 = −log IC50 (M)): 1e-06 M; Emax ([3]; read-out: LdMetRS Maximum % Inhibition Plateau): 48.9%; Ki ([5]; varied substrate ATP): 1.21 ± 0.06 µM; Ki ([5]; varied substrate methionine): 1.22 ± 0.06 µM; h (inhibitor Hill slope) ([5]; substrate ATP, eq 7): 1.75 ± 0.12; β (fraction of activity remaining) ([5]; substrate ATP, eq 7): 0.55 ± 0.01; Vmax ([5]; substrate ATP, eq 7): 0.292 ± 0.004 μM Piformed/min; n (substrate Hill slope) ([5]; substrate ATP, eq 7): 1.03 ± 0.03 ^b; Ks ([5]; substrate ATP, eq 7): 21.0 ± 0.74 µM; h (inhibitor Hill slope) ([5]; substrate methionine, eq 7): 1.65 ± 0.11; β (fraction of activity remaining) ([5]; substrate methionine, eq 7): 0.57 ± 0.01; Vmax ([5]; substrate methionine, eq 7): 0.359 ± 0.009 μM Piformed/min; n (substrate Hill slope) ([5]; substrate methionine, eq 7): 0.53 ± 0.02; Ks ([5]; substrate methionine, eq 7): 313 ± 35 µM; mode of inhibition, LdMetRS ([5]; best fit by F-test, eq 7): noncompetitive; Ki ([6]; varied substrate ATP): inactive; Ki ([6]; varied substrate methionine): inactive
CNc1nc(Nc2ccc(F)c(F)c2)nc2c1cnn2C [Compound 18] | > 100 µM | 2.31 | 6.31e-06 M | 98.7% | 58 µM (≈ 16.8 µg/mL) | 
CC(C)Oc1cc(Nc2nc(NCCO)c3cnn(C)c3n2)ccc1F [Compound 15] | > 100 µM |  | > 0.0001 M |  |  | Emax ([1]; 50 μM methionine, 100 μM ATP): 5.4%; Emax [3, 12]: 6.9%
COc1ccc(Nc2nc(NCCO)c3cnn(C)c3n2)cc1Cl [Compound 7] |  |  | > 0.0001 M |  |  | 
Cn1ncc2c(NCCO)nc(Nc3ccc(F)cc3F)nc21 [Compound 6] |  |  | 1.26e-05 M | 102% |  | 
Cn1ncc2c(NCCO)nc(Nc3ccc(F)c(F)c3)nc21 [Compound 5] |  |  | 1.26e-05 M | 98.7% |  | chromatographic logD [2, 11]: 1.64
CC(C)Nc1nc(NCCO)c2cnn(C)c2n1 [Compound 11] | > 100 µM | 0.63 | > 0.0001 M |  |  | Emax ([1]; 50 μM methionine, 100 μM ATP): 6.3%; Emax [3, 12]: 5.3%
COc1cc(Nc2nc(NCCO)c3cnn(C)c3n2)ccc1F [Compound 14] | > 100 µM |  | > 0.0001 M |  |  | Emax ([1]; 50 μM methionine, 100 μM ATP): 4.9%; Emax [3, 12]: 36.8%

More lines, main results first:

IC50 [1, 7] | chromatographic logD [2, 8] | IC50 [3, 9] | Emax [3, 10] | solubility at 24 h [4] | Structure (SMILES) | other results
> 100 µM | 4.91 | 7.94e-07 M | 94.7% |  | COC(=O)C1(Nc2nc(Nc3ccc(F)c(F)c3)nc3c2cnn3C)CC1 [Compound 32] | 
> 100 µM | 3.93 | > 0.0001 M |  | 0.46 µM (≈ 0.158 µg/mL) | Cn1ncc2c(N3CCCCC3)nc(Nc3ccc(F)c(F)c3)nc21 [Compound 24] | LdMetRS pIC50 ([3]; 50 μM methionine, 100 μM ATP, 50 nM LdMetRS, pIC50 = −log IC50 (M)): inactive
39.8 µM | 3.78 | 1.26e-06 M | 102% | 29.8 µM (≈ 11.3 µg/mL) | COC(=O)[C@@H](CO)Nc1nc(Nc2ccc(F)c(F)c2)nc2c1cnn2C [Compound 30] | TcMetRS Maximum % Inhibition Plateau [1]: 93.3%
> 100 µM | 2.45 | 7.94e-06 M | 65.4% | 0.59 µM (≈ 0.213 µg/mL) | Cn1ncc2c(NC3CCOCC3)nc(Nc3ccc(F)c(F)c3)nc21 [Compound 23] | 
> 100 µM |  | 6.31e-06 M | 68.7% | 0.72 µM (≈ 0.268 µg/mL) | Cc1noc(CNc2nc(Nc3ccc(F)c(F)c3)nc3c2cnn3C)n1 [Compound 28] | 
> 100 µM | 1.38 | 2e-05 M | 68.9% | 201 µM (≈ 69.8 µg/mL) | CNC(=O)CNc1nc(Nc2ccc(F)c(F)c2)nc2c1cnn2C [Compound 26] | 
> 100 µM | 2.43 | 7.94e-06 M | 87.7% | 6.1 µM (≈ 2.2 µg/mL) | Cn1ncc2c(N3CCC[C@H]3CO)nc(Nc3ccc(F)c(F)c3)nc21 [Compound 25] | 
> 100 µM | 2.5 | 3.98e-06 M | 61% |  | Cn1ncc2c(NC3CCCCC3O)nc(Nc3ccc(F)c(F)c3)nc21 (stereo not drawn) [Compound 22] | 
2 µM | 3.63 | 2e-07 M | 100% | 128 µM (≈ 54.8 µg/mL) | COC(=O)C(Cc1c[nH]cn1)Nc1nc(Nc2ccc(F)c(F)c2)nc2c1cnn2C (stereo not drawn) [Compound 31] | LdMetRS Maximum % Inhibition Plateau ([3]; plateau of dose-response curve, 50 μM methionine, 100 μM ATP): full inhibition; Aqueous Solubility [4]: good solubility
> 100 µM | 2.49 | 6.31e-06 M | 99.7% | 23.3 µM (≈ 7.79 µg/mL) | COCCNc1nc(Nc2ccc(F)c(F)c2)nc2c1cnn2C [Compound 21] | 
10 µM | 6.22 | 7.94e-07 M | 100% | 39.1 µM (≈ 15.3 µg/mL) | COC(=O)[C@H](Nc1nc(Nc2ccc(F)c(F)c2)nc2c1cnn2C)C(C)C [Compound 29] | TcMetRS Maximum % Inhibition Plateau [1]: 51.5%
